Reference: paper PMC9233675, “Ru(II) photocages enable precise control over enzyme activity with red light” (Nature Communications, 2022)
“And” between values parts separate entries of the source, which are not always exact repeats. Equal entries are not always repeated. Where two headings read alike, the source gives them in different places. Blank lines part the entries; values can stand above or below the compound they belong to.

Legend:
CYP19A1 = molecular target: T1, CYP19A1 (Homo sapiens, UniProt P11511); assay: In cell activity assay for CYP19A1 (dibenzylfluorescein conversion, HEK293 T-Rex cells); assay type: cell-based
T1 sequence (P11511 1-503): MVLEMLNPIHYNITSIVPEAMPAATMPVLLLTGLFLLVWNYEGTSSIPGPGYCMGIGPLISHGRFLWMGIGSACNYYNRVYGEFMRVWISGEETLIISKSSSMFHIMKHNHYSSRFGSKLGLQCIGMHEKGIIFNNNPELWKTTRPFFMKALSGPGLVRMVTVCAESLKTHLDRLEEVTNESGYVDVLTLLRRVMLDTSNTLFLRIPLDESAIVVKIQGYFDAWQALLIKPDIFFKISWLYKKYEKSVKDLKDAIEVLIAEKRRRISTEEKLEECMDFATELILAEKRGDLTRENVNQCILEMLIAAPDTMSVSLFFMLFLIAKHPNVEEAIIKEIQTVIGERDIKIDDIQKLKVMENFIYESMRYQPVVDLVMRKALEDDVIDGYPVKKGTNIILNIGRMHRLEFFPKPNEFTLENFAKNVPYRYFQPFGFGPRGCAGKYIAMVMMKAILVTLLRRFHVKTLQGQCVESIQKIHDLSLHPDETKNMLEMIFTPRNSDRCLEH
Method: Thus, the activity against CYP19A1 was evaluated using a recently developed in-cell fluorometric assay.
REE or DBF was added as described above.

[1] = tested on: cytochrome P450 enzymes in phLMs; assay: Inhibition of cytochrome P450 enzymes in pooled human liver microsomes (phLM); assay type: biochemical
Text: (§1) Pooled human liver microsomes were used to test the potential impact of the inhibitors on multiple polymorphisms of highly promiscuous, drug metabolizing CYPs[27]. There are more than 10 different CYPs in this preparation, and the use of pooled microsomes ensures that genetic variability in CYPs is represented. […] This is notable, as the liver CYPs have evolved to bind the widest possible variety of molecules.
(§2) Commercial preparations of pooled human liver microsomes come from 50 individuals, providing representation of biologically relevant CYP variants. Compounds were screened for inhibition of cytochrome P450 enzymes in phLMs using a 96-well kinetic assay. […] Compound stocks were diluted in dose–response, and added in 100 mM potassium phosphate buffer pH 7.8 with 50 µM 7-benzoyloxy-4-trifluoromethylcoumarin (Corning, prepared as a 10 mM DMSO stock) and 16 µg of phLMs (XenoTech, prepared as 20 mg protein/mL suspended in 250 mM sucrose) per well (n = 3). The compounds were incubated for 5 min in the absence of light at 25 °C. The 96-well plate was then either protected from light or irradiated with red light for 1 h (660 nm, 58.7 J/cm^2). Enzymatic turnover was initiated upon addition of NADPH (TCI, prepared immediately prior to addition) at a concentration 1.2 mM per well. To determine background fluorescence from the assay, NADPH was omitted from several control wells. The reactions were immediately placed in a SpectraFluor Plus plate reader (Tecan) preheated to 37 °C, and fluorescence measurements taken every 3 min for 120 min with excitation of 435 nm and emission of 525 nm. Fluorescence measurements in the […], and the data was processed with GraphPad Prism 6. The linear portion of the signal for each dose point with respect to time was first fitted to a line to determine the rate. The resulting slope of these lines was then plotted against the logarithmic concentration of the study compound to provide a dose–response curve.

CYP1A1 = molecular target: T2, CYP1A1 (Homo sapiens, UniProt P04798); assay: In cell activity assay for CYP1A1 (7-ethoxyresorufin conversion, HEK293 T-Rex cells); details: for IC50: REE; for % Enzyme Activity: CYP1A1, dark
T2 sequence (P04798 1-512): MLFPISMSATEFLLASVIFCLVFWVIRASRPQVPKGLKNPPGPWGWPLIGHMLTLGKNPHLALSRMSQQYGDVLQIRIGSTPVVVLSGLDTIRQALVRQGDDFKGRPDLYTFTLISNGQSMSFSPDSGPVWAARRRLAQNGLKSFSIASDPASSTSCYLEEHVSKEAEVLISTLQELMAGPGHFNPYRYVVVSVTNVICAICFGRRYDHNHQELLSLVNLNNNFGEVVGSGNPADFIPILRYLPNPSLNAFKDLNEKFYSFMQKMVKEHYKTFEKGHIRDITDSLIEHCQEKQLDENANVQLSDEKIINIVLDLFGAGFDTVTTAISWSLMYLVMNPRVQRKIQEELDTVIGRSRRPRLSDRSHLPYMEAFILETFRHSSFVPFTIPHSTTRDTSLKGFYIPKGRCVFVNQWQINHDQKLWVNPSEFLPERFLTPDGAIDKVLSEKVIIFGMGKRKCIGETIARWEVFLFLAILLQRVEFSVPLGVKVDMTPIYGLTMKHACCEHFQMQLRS
Text: A stable HEK cell line was created with CYP1B1 expression under the control of tetracycline to facilitate regulated and titratable expression (see the Methods section for more details). A cell line was also created for CYP1A1 as a counter screen to evaluate selectivity. […] The fluorogenic substrate, 7-ethoxyresorufin (REE), is a validated substrate for both CYPs and was used in both assays. Cytochrome P450 oxidoreductase (POR) is the required reductase partner for CYPs, and was also overexpressed in these systems to improve catalytic efficiency and the resulting signal for the assay.
Both the CYP and POR expression was under the control of the TetO2 inducible CMV promoter[26].
Cell lines were generated in the HEK293 T-Rex cell line. Following transfection, cells were selected with 500 μg/mL Zeocin, and 7.5 μg/mL Blasticidin to create a stable pool. Inducible expression of CYP and POR was confirmed by immunoblot. […] The lines were maintained with 250 μg/mL Zeocin and 7.5 μg/mL Blasticidin to ensure continued selective pressure.
(§3) Cell lines were seeded onto Geltrex coated 96-well plates at 40,000 cells/well, and grown overnight in DMEM media containing 1 μg/mL tetracycline. The media was then replaced with Opti-MEM supplemented with 2% FBS and 1 μg/mL tetracycline. Compounds were serially diluted in Opti-MEM supplemented with 2% FBS and 1 μg/mL tetracycline and an equal volume of compound added to the cells (n = 3). Following a 1 h incubation, resorufin ethyl ether (REE; for CYP1B1 and 1A1) or dibenzylfluorescein (DBF; for 19A1) was added to the cells for a total concentration of 5 μM for REE and 1 μM for DBF. […] Dose–response curves were generated in Prism and normalized using the no-compound control (set as 100% activity) and the no-cell control (set as 0% activity; this value in the raw data reflects the background fluorescence of the dye alone).
For the light-activated compounds, the experiment was modified as follows: Cells were seeded and grown overnight as described above. Media was replaced with L-15 containing 1 μg/mL tetracycline; L-15 media was used in place of opti-MEM™ to maintain CO2 outside the incubator, and to prevent cellular damage from light. Compounds were serially diluted in L-15 with 1 μg/mL tetracycline and added to the cells followed by a 1 h incubation. […] REE or DBF was added as described above.

[2] = tested on: cytochrome P450 enzymes in pooled human liver microsomes; assay: Inhibition of cytochrome P450 enzymes in pooled human liver microsomes (phLM); assay type: biochemical; details: human, pooled human liver microsomes, pH 7.8, probe 7-benzoyloxy-4-trifluoromethylcoumarin, 50 µM; Dark; conversion of 7-benzoyloxy-4-trifluoromethylcoumarin
Text: as §1, §2

CYP1B1 D333N = molecular target: T3, CYP1B1 D333N (Homo sapiens, UniProt Q16678, D333N); assay: In cell CYP1B1 activity assay, D333N variant; details: log of the ratio of IC50 values mutant vs WT (Fig. 3c)
T3 sequence (Q16678 1-543 D333N): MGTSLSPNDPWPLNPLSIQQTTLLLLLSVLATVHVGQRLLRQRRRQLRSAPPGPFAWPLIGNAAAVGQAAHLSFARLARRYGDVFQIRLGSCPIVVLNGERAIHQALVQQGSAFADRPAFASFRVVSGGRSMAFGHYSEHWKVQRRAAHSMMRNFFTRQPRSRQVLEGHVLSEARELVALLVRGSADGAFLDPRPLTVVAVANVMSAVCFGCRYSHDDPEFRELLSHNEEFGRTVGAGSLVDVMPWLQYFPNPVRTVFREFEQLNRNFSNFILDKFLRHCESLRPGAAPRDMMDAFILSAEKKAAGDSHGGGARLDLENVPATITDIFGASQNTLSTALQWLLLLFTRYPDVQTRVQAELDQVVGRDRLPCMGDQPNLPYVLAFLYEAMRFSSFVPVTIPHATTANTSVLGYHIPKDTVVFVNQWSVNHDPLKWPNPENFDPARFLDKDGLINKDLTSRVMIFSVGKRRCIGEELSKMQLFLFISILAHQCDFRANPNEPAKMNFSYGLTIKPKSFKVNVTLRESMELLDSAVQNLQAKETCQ
Text: Site directed mutagenesis was used to probe the importance of specific active-site contacts identified through the structural assessment (Fig. 3a, b) and simulations. In all cases, conservative mutations were made to maintain polar or hydrophobic character and approximate size. The aromatic residues that frame the inhibitor binding site, Phe143 and Phe231, were mutated to Leu to determine the importance of the π interactions. In addition, the Ser127 residue, located in the upper corner of the active site on the B-C loop, was chosen for mutation based on the simulations. This amino acid transiently contacts the inhibitors, but also forms a hydrogen bond with Asp326 of the I-helix, and thus may impact the position of this helix with regards to the B-C loop. […] Rather than directly mutating these residues in the I-helix, neighboring residues Gln332 and Asp333 were targeted, with the hope of interrupting amino acid interactions that position the helix within the active site.
The ratio of IC50 values for the WT vs. the mutant are shown in Fig. 3c and reflects the importance of the specific contact; the log of the value is used to aid in visualization.
as §3

[3] = Dark, conversion of dibenzylfluorescein (DBF), read-out: IC50 CYP19A1 Dark
[4] = at concentrations ≥10 μM (so in the source)

Compound: COc1ccc(/C=C/c2cc[n+]([Ru-4]345([n+]6ccccc6-c6cccc([n+]63)-c3cccc[n+]34)[n+]3c(cc(C(=O)[O-])c4ccccc43)-c3cc(C(=O)[O-])c4ccccc4[n+]35)cn2)c(OC)c1 [Compound 5]
IC50 (CYP19A1; [3]): 28.3 µM
IC50 (CYP19A1; Light: 660 nm, 58.7 J/cm^2, DBF, read-out: IC50 CYP19A1 Light): 11.2 µM
impact on CYP19A1 (CYP19A1; [4]): no impact
SI (1B1:19A1) (CYP19A1; ratio of IC50 CYP19A1 to CYP1B1, for complexes 4–6 IC50 (light)): 660
IC50 ([1]; Dark, conversion of 7-benzoyloxy-4-trifluoromethylcoumarin, read-out: IC50 phLM Dark): > 30 µM
IC50 ([1]; Light: 660 nm, 58.7 J/cm^2, read-out: IC50 phLM Light): ~30 µM
SI (1B1:phLM) ([1]; ratio of IC50 phLM to CYP1B1, for complexes 4–6 IC50 (light)): ∼1750
impact on CYP1A1 (CYP1A1; [4]): no impact
SI (1B1:1A1) (CYP1A1; ratio of IC50 CYP1A1 to CYP1B1, for complexes 4–6 the IC50 (light) values were used): 460
IC50 (CYP1A1; read-out: IC50 CYP1A1 Dark, Dark, n = 3): 40.9 µM
IC50 (CYP1A1; read-out: IC50 CYP1A1 Light, Light: 660 nm, 58.7 J/cm^2): 7.82 µM

IC50 (CYP19A1; [3]): > 30 µM
IC50 [2]: 11 µM
logSI D333N (CYP1B1 D333N): 2
% Enzyme Activity (CYP1A1; Log Conc 0.045757): 58.9151% and 62.8214% and 61.5139%
% Enzyme Activity (CYP1A1; Log Conc 0.522879): 20.9441% and 25.477% and 27.5679%
% Enzyme Activity (CYP1A1; Log Conc 1): 2.088% and 2.407% and 5.1678%
% Enzyme Activity (CYP1A1; Log Conc -0.43136): 94.4495% and 93.088% and 89.9544%
% Enzyme Activity (CYP1A1; Log Conc -0.90849): 109.334% and 103.31% and 104.553%
% Enzyme Activity (CYP1A1; Log Conc -1.38561): 108.032% and 102.127% and 103.391%
% Enzyme Activity (CYP1A1; Log Conc -1.86273): 103.764% and 105.887% and 103.748%
% Enzyme Activity (CYP1A1; Log Conc -2.33985): 105.601% and 99.1121% and 95.2869%
Compound: COc1cc(/C=C/c2ccc(OC)cc2OC)cc(OC)c1 [Compound 1, reference compound]
